PubChem BioAssay (NCI)
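Five compound concentrations were applied to cells in 96-well plates for 48 hours; endpoints were derived by simple linear interpolation of the resulting dose-response curve. The concentration for full growth arrest is given as TGI.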

Legend:
Test in all cases: NCI anticancer screen, dose series, 48 h
OVCAR-5 ovarian = tested on: OVCAR-5 ovarian
OVCAR-4 ovarian = tested on: OVCAR-4 ovarian
SF-295 CNS = tested on: SF-295 CNS
MDA-N = tested on: MDA-N
A549 NSCLC = tested on: A549 NSCLC
SF-539 CNS = tested on: SF-539 CNS
UACC-257 melanoma = tested on: UACC-257 melanoma
NCI-H522 lung = tested on: NCI-H522 lung
BT-549 breast = tested on: BT-549 breast
SK-MEL-28 melanoma = tested on: SK-MEL-28 melanoma
UACC-62 melanoma = tested on: UACC-62 melanoma
SR leukemia = tested on: SR leukemia
NCI-H226 lung = tested on: NCI-H226 lung
CAKI-1 renal = tested on: CAKI-1 renal
HL-60(TB) leukemia = tested on: HL-60(TB) leukemia
IGROV1 ovarian = tested on: IGROV1 ovarian
NCI/ADR-RES ovarian = tested on: NCI/ADR-RES ovarian
SW-620 colon = tested on: SW-620 colon
EKVX NSCLC = tested on: EKVX NSCLC
786-0 renal = tested on: 786-0 renal
HOP-92 NSCLC = tested on: HOP-92 NSCLC
OVCAR-8 ovarian = tested on: OVCAR-8 ovarian
SK-MEL-2 melanoma = tested on: SK-MEL-2 melanoma
SNB-19 CNS = tested on: SNB-19 CNS
HCT-15 colon = tested on: HCT-15 colon
SNB-75 CNS = tested on: SNB-75 CNS
NCI-H23 lung = tested on: NCI-H23 lung
DU-145 prostate = tested on: DU-145 prostate
K-562 leukemia = tested on: K-562 leukemia
OVCAR-3 ovarian = tested on: OVCAR-3 ovarian
MCF7 breast = tested on: MCF7 breast
MALME-3M melanoma = tested on: MALME-3M melanoma
MOLT-4 leukemia = tested on: MOLT-4 leukemia
NCI-H460 lung = tested on: NCI-H460 lung
HOP-62 NSCLC = tested on: HOP-62 NSCLC
HCC-2998 colon = tested on: HCC-2998 colon
SK-MEL-5 melanoma = tested on: SK-MEL-5 melanoma
M14 melanoma = tested on: M14 melanoma
RXF 393 renal = tested on: RXF 393 renal
UO-31 renal = tested on: UO-31 renal
HCT-116 colon = tested on: HCT-116 colon
RPMI-8226 leukemia = tested on: RPMI-8226 leukemia
SN12C renal = tested on: SN12C renal
TK-10 renal = tested on: TK-10 renal
SF-268 CNS = tested on: SF-268 CNS
ACHN renal = tested on: ACHN renal
CCRF-CEM leukemia = tested on: CCRF-CEM leukemia
KM12 colon = tested on: KM12 colon
PC-3 prostate = tested on: PC-3 prostate
SK-OV-3 ovarian = tested on: SK-OV-3 ovarian
COLO 205 colon = tested on: COLO 205 colon
HT29 colon = tested on: HT29 colon
U251 CNS = tested on: U251 CNS
T-47D breast = tested on: T-47D breast
HS 578T breast = tested on: HS 578T breast
MDA-MB-435 = tested on: MDA-MB-435
LOX IMVI melanoma = tested on: LOX IMVI melanoma
MDA-MB-231 breast = tested on: MDA-MB-231 breast
A498 renal = tested on: A498 renal

COc1ccc(/C=C(\C#N)c2ccccn2)cc1OC
TGI (OVCAR-5 ovarian): > 100 µM
TGI (OVCAR-4 ovarian): > 100 µM
TGI (SF-295 CNS): 85.3 µM
TGI (MDA-N): > 100 µM
TGI (A549 NSCLC): > 100 µM
TGI (SF-539 CNS): > 100 µM
TGI (UACC-257 melanoma): > 100 µM
TGI (NCI-H522 lung): > 100 µM
TGI (BT-549 breast): 45.4 µM
TGI (SK-MEL-28 melanoma): > 100 µM
TGI (UACC-62 melanoma): > 100 µM
TGI (SR leukemia): > 100 µM
TGI (NCI-H226 lung): 95.8 µM
TGI (CAKI-1 renal): > 100 µM
TGI (HL-60(TB) leukemia): > 100 µM
TGI (IGROV1 ovarian): > 100 µM
TGI (NCI/ADR-RES ovarian): 55.7 µM
TGI (SW-620 colon): > 100 µM
TGI (EKVX NSCLC): 56.9 µM
TGI (786-0 renal): > 100 µM
TGI (HOP-92 NSCLC): 48.7 µM
TGI (OVCAR-8 ovarian): > 100 µM
TGI (SK-MEL-2 melanoma): > 100 µM
TGI (SNB-19 CNS): > 100 µM
TGI (HCT-15 colon): > 100 µM
TGI (SNB-75 CNS): 84.9 µM
TGI (NCI-H23 lung): > 100 µM
TGI (DU-145 prostate): > 100 µM
TGI (K-562 leukemia): > 100 µM
TGI (OVCAR-3 ovarian): > 100 µM
TGI (MCF7 breast): 72.6 µM
TGI (MALME-3M melanoma): > 100 µM
TGI (MOLT-4 leukemia): > 100 µM
TGI (NCI-H460 lung): > 100 µM
TGI (HOP-62 NSCLC): > 100 µM
TGI (HCC-2998 colon): > 100 µM
TGI (SK-MEL-5 melanoma): > 100 µM
TGI (M14 melanoma): > 100 µM
TGI (RXF 393 renal): > 100 µM
TGI (UO-31 renal): 82.2 µM
TGI (HCT-116 colon): > 100 µM
TGI (RPMI-8226 leukemia): > 100 µM
TGI (SN12C renal): > 100 µM
TGI (TK-10 renal): > 100 µM
TGI (SF-268 CNS): > 100 µM
TGI (ACHN renal): > 100 µM
TGI (CCRF-CEM leukemia): > 100 µM
TGI (KM12 colon): > 100 µM
TGI (PC-3 prostate): 65.7 µM
TGI (SK-OV-3 ovarian): > 100 µM
TGI (COLO 205 colon): > 100 µM
TGI (HT29 colon): > 100 µM
TGI (U251 CNS): 42 µM

N#CC1=C(N)OC2=C(CCCc3ccc([N+](=O)[O-])cc32)C1c1ccc(Cl)cc1 (centres undefined)
TGI (OVCAR-5 ovarian): > 100 µM
TGI (T-47D breast): 53.9 µM
TGI (OVCAR-4 ovarian): 28.3 µM
TGI (SF-295 CNS): > 100 µM
TGI (MDA-N): 39.6 µM
TGI (A549 NSCLC): > 100 µM
TGI (SF-539 CNS): 29.5 µM
TGI (UACC-257 melanoma): > 100 µM
TGI (NCI-H522 lung): 31.7 µM
TGI (BT-549 breast): 75.3 µM
TGI (SK-MEL-28 melanoma): > 100 µM
TGI (UACC-62 melanoma): 20.2 µM
TGI (NCI-H226 lung): 76.3 µM
TGI (CAKI-1 renal): > 100 µM
TGI (HL-60(TB) leukemia): 7.26 µM
TGI (HS 578T breast): 88.8 µM
TGI (IGROV1 ovarian): > 100 µM
TGI (NCI/ADR-RES ovarian): 78.1 µM
TGI (SW-620 colon): > 100 µM
TGI (EKVX NSCLC): 71.7 µM
TGI (MDA-MB-435): 65.5 µM
TGI (LOX IMVI melanoma): 44.5 µM
TGI (786-0 renal): 23.9 µM
TGI (HOP-92 NSCLC): > 100 µM
TGI (OVCAR-8 ovarian): 62.6 µM
TGI (MDA-MB-231 breast): > 100 µM
TGI (SK-MEL-2 melanoma): 54.7 µM
TGI (SNB-19 CNS): > 100 µM
TGI (HCT-15 colon): > 100 µM
TGI (SNB-75 CNS): > 100 µM
TGI (A498 renal): 35.5 µM
TGI (NCI-H23 lung): 47.7 µM
TGI (DU-145 prostate): 63.2 µM
TGI (K-562 leukemia): > 100 µM
TGI (OVCAR-3 ovarian): 29.4 µM
TGI (MCF7 breast): 22.6 µM
TGI (MALME-3M melanoma): 31.4 µM
TGI (MOLT-4 leukemia): 93.1 µM
TGI (NCI-H460 lung): 15.7 µM
TGI (HOP-62 NSCLC): > 100 µM
TGI (HCC-2998 colon): 52.3 µM
TGI (SK-MEL-5 melanoma): 15.7 µM
TGI (M14 melanoma): 49.8 µM
TGI (RXF 393 renal): 19.5 µM
TGI (UO-31 renal): > 100 µM
TGI (HCT-116 colon): 12.5 µM
TGI (RPMI-8226 leukemia): 32 µM
TGI (SN12C renal): 6.78 µM
TGI (TK-10 renal): > 100 µM
TGI (SF-268 CNS): > 100 µM
TGI (ACHN renal): 46.5 µM
TGI (CCRF-CEM leukemia): > 100 µM
TGI (KM12 colon): > 100 µM
TGI (PC-3 prostate): > 100 µM
TGI (SK-OV-3 ovarian): > 100 µM
TGI (COLO 205 colon): > 100 µM
TGI (HT29 colon): > 100 µM
TGI (U251 CNS): 28 µM

O=C1c2cccc3cc([N+](=O)[O-])cc(c23)C(=O)N1c1ccc(OCCN2CCCC2)cc1
TGI (OVCAR-5 ovarian): 51.7 µM
TGI (T-47D breast): > 100 µM
TGI (OVCAR-4 ovarian): 67.2 µM
TGI (SF-295 CNS): 41.1 µM
TGI (MDA-N): 80.3 µM
TGI (A549 NSCLC): 20.6 µM
TGI (SF-539 CNS): 29.5 µM
TGI (UACC-257 melanoma): 36.1 µM
TGI (NCI-H522 lung): 31.7 µM
TGI (SK-MEL-28 melanoma): 45.9 µM
TGI (SR leukemia): 73.2 µM
TGI (NCI-H226 lung): 24.2 µM
TGI (CAKI-1 renal): > 100 µM
TGI (HL-60(TB) leukemia): 29 µM
TGI (HS 578T breast): > 100 µM
TGI (IGROV1 ovarian): 41.9 µM
TGI (NCI/ADR-RES ovarian): > 100 µM
TGI (SW-620 colon): 95.2 µM
TGI (EKVX NSCLC): 71.3 µM
TGI (MDA-MB-435): 45.1 µM
TGI (LOX IMVI melanoma): 34.6 µM
TGI (786-0 renal): 33.4 µM
TGI (HOP-92 NSCLC): > 100 µM
TGI (OVCAR-8 ovarian): > 100 µM
TGI (MDA-MB-231 breast): > 100 µM
TGI (SK-MEL-2 melanoma): 54.3 µM
TGI (SNB-19 CNS): 80.2 µM
TGI (HCT-15 colon): 44.5 µM
TGI (SNB-75 CNS): 67.1 µM
TGI (A498 renal): 32.2 µM
TGI (NCI-H23 lung): 39.7 µM
TGI (DU-145 prostate): > 100 µM
TGI (MCF7 breast): 38.3 µM
TGI (MALME-3M melanoma): 30.9 µM
TGI (MOLT-4 leukemia): 56.7 µM
TGI (NCI-H460 lung): 21.3 µM
TGI (HOP-62 NSCLC): 76.4 µM
TGI (HCC-2998 colon): 33.5 µM
TGI (SK-MEL-5 melanoma): 30.1 µM
TGI (M14 melanoma): 47.1 µM
TGI (RXF 393 renal): 37 µM
TGI (UO-31 renal): 27.1 µM
TGI (HCT-116 colon): 46.7 µM
TGI (SN12C renal): > 100 µM
TGI (TK-10 renal): 81.3 µM
TGI (SF-268 CNS): > 100 µM
TGI (ACHN renal): 28.1 µM
TGI (CCRF-CEM leukemia): 73.5 µM
TGI (KM12 colon): > 100 µM
TGI (PC-3 prostate): > 100 µM
TGI (COLO 205 colon): 38.3 µM
TGI (HT29 colon): 28.3 µM
TGI (U251 CNS): 41.3 µM
